How the values were obtained:
CEM cells = assay: Cytotoxicity in uninfected CEM cells (trypan blue staining); details: at concentrations not exceeding 10 mcg/ml
Method: Human T cell-derived, T4 antigen-positive CEM cells (provided by the Institut Pasteur, France) were used as host cells of HIV. Cell culture was carried out in a carbon dioxide-containing atmosphere in an incubator maintained at 37°C according to a conventional method [cf. […] The culture supernatant (5×10⁶ TCID₅₀/ml) obtained by subjecting CEM cells to HIV (LAV 1) infection and stored at -70°C was used as the HIV source.
The cell culture medium (10 ml) placed in a plastic culture flask (25 cm²) was inoculated with CEM cells to a cell density of 2.5×10⁵ cells/ml and incubation was performed for 3 days. Then, the culture was transferred to a 15-ml plastic centrifuge tube and centrifuged at 1,000 revolutions per minute for 5 minutes for medium removal. A fresh portion of the medium was added to the cells, the cell density being adjusted to 5.0×10⁵ cells/ml. The following mixture (1.0 ml) containing the cell suspension prepared in the above manner was incubated in a 24-well plastic culture plate for 4 days:
The cells in each well were then suspended uniformly in the medium by pipetting and a 0.5-ml portion of the suspension was separated.
A fresh 2-ml portion of the test substance-free medium was added to the remaining cell suspension (0.5 ml) and, after a further 3-day incubation, a cell suspension was produced in the same manner and a 0.5-ml portion thereof was removed.
The cell suspensions collected in the above manner were subjected to viable cell count and viable cell percentage determinations by trypan blue staining.

in vivo = details: mouse

Structure (SMILES) | cytotoxicity (CEM cells) | LD50 (in vivo; po) [mg/kg] | LD50 (in vivo; iv) [mg/kg]
CC1COc2c(N3CCN(C)CC3)c(F)cc3c(=O)c(C(=O)O)cn1c23 (racemic) [OFLX, (±)-9-fluoro-3-methyl-10-(4-methyl-1-piperazinyl)-7-oxo-2,3-dihydro-7H-pyrido[1,2,3-de][1,4]benzoxazine-6-carboxylic acid] | no cytotoxicity | 5450 | –
C[C@H]1COc2c(N3CCN(C)CC3)c(F)cc3c(=O)c(C(=O)O)cn1c23 [DR-3355, (-)-(S)-9-fluoro-2,3-dihydro-3-methyl-10-(4-methyl-1-piperazinyl)-7-oxo-7H-pyrido[1,2,3-de][1,4]benzoxazine-6-carboxylic acid hemihydrate] | no cytotoxicity | – | ≥ 200
CCn1cc(C(=O)O)c(=O)c2cc(F)c(N3CCNCC3)cc21 [NFLX, 1-ethyl-6-fluoro-1,4-dihydro-4-oxo-7-(1-piperazinyl)-3-quinolinecarboxylic acid] | no cytotoxicity | ≥ 4000 | –

Source: EP0394553A2, “Use of fluorine containing pyridone carboxylic acid derivatives for preparing a medicament for the treatment of HIV infections” (DAIICHI PHARMACEUTICAL CO., LTD., priority 1989, dated 1990)
